Measured values as given in patent US20260279694A1, “ELECTROLYTE SOLUTION FOR HYBRID ELECTROLYTIC CAPACITORS AND HYBRID ELECTROLYTIC CAPACITOR” (SANYO CHEMICAL INDUSTRIES, LTD., priority 2023, published 2026).

Assay: Measurement of acid dissociation constant (pKa) by titration in methanol
Format: physicochemical
Conditions: 25° C.; 1 part by weight acid in 99 parts methanol titrated with 0.1 mol/L methanolic potassium hydroxide; pH at half the titrant of first equivalence point
Protocol: At 25° C., 99 parts by weight of methanol was added to 1 part by weight of a carboxylic acid (A), and the contents were shaken and mixed until the carboxylic acid (A) was completely dissolved. A 0.1 mol/L methanolic potassium hydroxide solution was added dropwise to the resulting methanol solution of the carboxylic acid (A) to obtain a titration curve having inflection points, and among the inflection points, an inflection point at which the amount of titrant added was the smallest was defined as an equivalence point. The pH at half the amount of titrant added at the equivalence point on the obtained titration curve was read, and the pH was defined as the acid dissociation constant (pKa) of the carboxylic acid (A).
The pKa of the acid component (A′) was also measured in the same manner as the pKa of the carboxylic acid (A).

Compound	pKa	Acid dissociation constant (pKa)
O=C(O)c1ccc(C(=O)O)o1 [2,5-Furandicarboxylic acid, 2,5-furandicarboxylic acid, reference compound]	3.4	
O=C(O)CCCCCCCC(=O)O [Azelaic acid, azelaic acid, reference compound]	6.7	
OB(O)O [Boric acid, boric acid, reference compound]	9.8	
O=C(O)c1ccccc1C(=O)OCCO [Example A1, phthalic acid ethylene glycol monoester]		3.8
O=C(O)c1cc(C(=O)O)c(C(=O)OCCO)cc1C(=O)O [Example A5, pyromellitic acid ethylene glycol monoester]		2.6
O=C(O)c1c(C(=O)O)c(C(=O)O)c(C(=O)OCCO)c(C(=O)O)c1C(=O)O [Example A7, mellitic acid ethylene glycol monoester]		1.7
CCCCCCCCCCOC(=O)c1ccccc1C(=O)O [Example A10, phthalic acid n-decanol monoester]		3.9
O=C(O)c1ccccc1C(=O)OCCCCCCCCCCO [Example A11, phthalic acid 1,10-decanediol monoester]		4.0
O=C(O)c1ccccc1C(=O)O [Phthalic acid, phthalic acid, reference compound]	3.9	
O=C(O)c1cc(C(=O)O)c(C(=O)O)cc1C(=O)O [Pyromellitic acid, pyromellitic acid, reference compound]	2.8	
O=C(O)c1ccc(C(=O)O)c(C(=O)O)c1 [Trimellitic acid, trimellitic acid, reference compound]	3.5	
pyromellitic acid polyethylene glycol monoester [Example A6]		2.9
trimellitic acid polyethylene glycol monoester [Example A4]		3.6
